This data set in a line: Aquatic toxicity according to Method 2007. The note with it: in vivo, Mysidopsis Bahia. From the text:
(References: OECD Guideline for the Testing of Chemicals: BG1Luc Estrogen Receptor Transactivation Test Method for Identifying Estrogen Receptor Agonists and Antagonists, OECD Guidelines for the Testing of Chemicals, Section 4, OECD Publishing, Paris, https://doi.org/10.1787/9789264185395-en, and http://ntp.niehs.nih.gov/ntp/about_ntp/sacatm/2012/september/d_draft_oecdtg457bg1luc_508.pdf; and G. Bittner, M. Denison, C. Yang, M. Stoner and G. He, Environmental Health 2014, 13 103). They were also tested for aquatic toxicity according to Method 2007 using Mysidopsis Bahia.

As a reminder, the LC50 is the concentration lethal to half of the exposed cells or organisms. `CCCCCCCCCCCCCCCC[N+](C)(C)C` [CTAB, cetyl trimethyl ammonium bromide] showed an LC50 at 96 h of 0.2 µg/mL.
